The source made the active and inactive calls. The calls are words filed in the database; no cut-off is given here.
Legend:
[1] = target: 3',5'-cyclic-AMP phosphodiesterase 4B (Homo sapiens) (UniProt Q07343); assay: Inhibition of PDE4B (unknown origin) expressed in HEK293 cells assessed as increase in forskolin-stimulated cAMP level preincubated for 30 mins followed by forskolin-stimulation measured after 4 hrs by luciferase reporter gene assay; type: functional, cell-based
[2] = target: 3',5'-cyclic-AMP phosphodiesterase 4B (Homo sapiens) (UniProt Q07343); assay: Inhibition of PDE4B (unknown origin) expressed in HEK293 cells assessed as increase in forskolin-stimulated cAMP level at 30 uM preincubated for 30 mins followed by forskolin-stimulation measured after 4 hrs by luciferase reporter gene assay relative to control; type: functional, cell-based

Chain of 3',5'-cyclic-AMP phosphodiesterase 4B (Homo sapiens) (Q07343 whole entry): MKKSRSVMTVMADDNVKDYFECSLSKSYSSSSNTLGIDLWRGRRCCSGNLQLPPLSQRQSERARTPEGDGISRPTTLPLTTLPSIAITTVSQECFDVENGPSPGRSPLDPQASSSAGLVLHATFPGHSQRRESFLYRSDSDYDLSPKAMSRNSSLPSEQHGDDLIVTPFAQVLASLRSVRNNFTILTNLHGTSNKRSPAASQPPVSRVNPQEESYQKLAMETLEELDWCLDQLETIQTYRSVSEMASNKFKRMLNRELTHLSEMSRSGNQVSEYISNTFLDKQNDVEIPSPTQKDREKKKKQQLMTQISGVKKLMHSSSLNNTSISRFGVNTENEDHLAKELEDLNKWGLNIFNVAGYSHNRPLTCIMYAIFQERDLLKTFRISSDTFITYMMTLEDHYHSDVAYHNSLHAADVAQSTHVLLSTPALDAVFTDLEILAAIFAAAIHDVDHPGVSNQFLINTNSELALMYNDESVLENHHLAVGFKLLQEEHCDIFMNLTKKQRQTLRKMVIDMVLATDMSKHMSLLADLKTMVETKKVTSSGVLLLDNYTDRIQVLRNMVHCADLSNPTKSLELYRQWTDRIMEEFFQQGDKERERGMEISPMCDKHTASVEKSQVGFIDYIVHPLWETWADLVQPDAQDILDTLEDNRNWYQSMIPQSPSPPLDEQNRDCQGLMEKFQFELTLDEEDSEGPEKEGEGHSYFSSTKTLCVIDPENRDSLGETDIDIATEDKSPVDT

## CS(=O)(=O)n1c(COCCN2COc3ccccc3C2=O)cc2cc([N+](=O)[O-])ccc21
[1]
  inhibition: Dose-dependent effect
[2]
  fold change (FC): > 5

## CS(=O)(=O)n1c(COCCN2COc3ccccc3C2=O)cc2cc(Cl)ccc21
[2]
  inhibition: Active

## CC(=O)c1ccc2c(c1)cc(COCCN1COc3ccccc3C1=O)n2S(C)(=O)=O
[2]
  inhibition: inactive

## CS(=O)(=O)n1c(COCCN2COc3ccccc3C2=O)cc2cc(F)ccc21
[2]
  inhibition: Active

## CS(=O)(=O)n1c(COCCN2COc3ccccc3C2=O)cc2cc(C#N)ccc21
[2]
  inhibition: Active

## O=C1c2ccccc2OCN1CCOCc1cc2ccccc2o1
[2]
  inhibition: Active

## CS(=O)(=O)n1c(COCCN2COc3ccccc3C2=O)cc2cc(C(F)(F)F)ccc21
[2]
  inhibition: Active

## COc1ccc(C2CNC(=O)C2)cc1OC1CCCC1 (centres undefined)
[2]
  fold change (FC): > 7
